Experimental data from patent US20080269202A1, “Novel 2,3-benzodiazepine derivatives and their use as antipsychotic agents” (Teva Pharmaceutical Industries Ltd., priority 2007, published 2008).

Legend:
[1] = tested on: DOPA accumulation in eminentia mediana; assay: DOPA accumulation in eminentia mediana after NSD-1015; type: in vivo, Sprague-Dawley rats
Procedure: Acute administration of atypical antipsychotics results in enhanced accumulation of dihydroxyphenylalanine (DOPA) in the […] after the inhibition of DOPA decarboxylase. In contrast, DOPA accumulation is not altered by the typical antipsychotics (Andersson, G, Albinsson, A, Pettersson, G, Arzneimittelforschung. 1990, 40, 237; Gudelsky, G. A., Meltzer, H. Y. Neuropsychopharmacology, 1989, 2, 45). The effect of the compound of Example 121 on DOPA-accumulation was measured by analyzing the levels of DOPA in […]. […] (EM), were dissected out from the brains on ice-cold plates and kept at -70° C. until they were assayed for DOPA by HPL-EC. Statistical analysis was carried out using one-way ANOVA followed by Duncan test.

PCP-induced locomotion = assay: PCP induced locomotor activity test (open field); type: in vivo, mice; settings: all doses (1, 3, 6, 10, 15 mg/kg) by gavage, PCP 5 mg/kg, vs vehicle
Procedure: The effects of compounds 121 and 183, administered orally, were also evaluated in the PCP induced locomotor activity test. Compound 121 was designated as “Compound A” and Compound 183 was designated as “Compound B” for purposes of this study. In general, the study aimed to test Compounds A and B for potential antipsychotic activity in PCP treated mice.
Compounds A & B were dissolved in 3% Tween: Compound A: 1, 3, 6, 10, and 15 mg/kg; Compound B: 3, 7, 14, 28, and 40 mg/kg; Compounds A+B were administered by gavage.
PCP (5 mg/kg) was dissolved in sterile injectable water.
The open field (“OF”) test assessed both anxiety and locomotor behavior. The open field chambers are Plexiglas square chambers (27.3×27.3×20.3 cm; Med Associates Inc., St Albans, Vt.) surrounded by infrared photobeams (16×16×16) to measure horizontal and vertical activity. The analysis was configured to divide the open field into a center and periphery zone. Distance traveled was measured from horizontal beam breaks as the mouse moved whereas rearing activity was measured from vertical beam breaks.
Mice were brought to the activity experimental room for at least 1 hr acclimation to the experimental room conditions prior to testing. […]
Data was analyzed to show baseline activity (activity during the 30 min prior to PCP injection) and PCP-induced activity (activity during the 60 min after PCP injection).

SMILES: CNC(=O)N1N=C(c2ccc(N)cc2)c2cc(OC)c(OC)cc2C[C@H]1C [Example 121]
- DOPA levels (pg/tissue block) ([1]; rat eminentia mediana, 10 mg/kg ip, mean ± SEM): 484 ± 34 pg/tissue block
- DOPA levels (pg/tissue block) ([1]; rat eminentia mediana, 20 mg/kg ip, mean ± SEM): 652 ± 69 pg/tissue block
- DOPA levels (pmol/mg prot) ([1]; rat eminentia mediana, 40 mg/kg ip, mean ± SEM): 94.0 ± 11.4 pmol/mg prot
- effect on levels of DOPA in the EM of rats ([1]; result in words, vs saline): significantly increased
- effect on PCP induced locomotion (PCP-induced locomotion): significantly decreased
